Laboratory results from patent US10828266B2, “Topical regional neuro-affective therapy with caryophyllene” (Afgin Pharma, LLC, priority 2016, dated 2020).

Experiments:
[1] = target: cannabinoid receptor type-1 (CB1) (Homo sapiens, UniProt P21554); conditions: centrally expressed receptor; background statement; cited from earlier work
[2] = tested on: human patients; experiment: Inventor's observation of onset and duration of therapeutic effect after administration of caryophyllene at the back of the neck; type: in vivo
Experimental: The inventor has observed rapid therapeutic onset of action, generally, less than 10 to 15 minutes administration of caryophyllene at the back of the neck, with maximal benefit noted well within 30 minutes. In certain embodiments, a prolonged therapeutic effect has been noted, e.g., about 4 to about 12 hours or more, depending on condition and severity of the condition being treated.

[3] = target: CB2 receptors (Homo sapiens, UniProt P34972); conditions: background statement; cited from earlier work
[4] = tested on: human patients; experiment: Topical Cari-Derm (3% caryophyllene) on the back of the neck of human patients, case series of Table 1; type: in vivo
Experimental: (§1) The following patients were treated with a topical caryophyllene formulation (referred to in Table 1 as “Cari-Derm”, which is a topical 3% caryophyllene formulation) administered on the back of the neck on human patients, as more specifically described below in Table 1. The 3% Cari-Derm formulation contained approximately 30 mg of caryophyllene in a unit dose (1 gram).

[5] = tested on: human patients; experiment: Response to earlier or current medication as given in the patient history of Table 1; type: in vivo; conditions: patient 11, autism and seizures with poor vision and focus
Experimental: as §1

Sequence of CB2 receptors (P34972 whole entry): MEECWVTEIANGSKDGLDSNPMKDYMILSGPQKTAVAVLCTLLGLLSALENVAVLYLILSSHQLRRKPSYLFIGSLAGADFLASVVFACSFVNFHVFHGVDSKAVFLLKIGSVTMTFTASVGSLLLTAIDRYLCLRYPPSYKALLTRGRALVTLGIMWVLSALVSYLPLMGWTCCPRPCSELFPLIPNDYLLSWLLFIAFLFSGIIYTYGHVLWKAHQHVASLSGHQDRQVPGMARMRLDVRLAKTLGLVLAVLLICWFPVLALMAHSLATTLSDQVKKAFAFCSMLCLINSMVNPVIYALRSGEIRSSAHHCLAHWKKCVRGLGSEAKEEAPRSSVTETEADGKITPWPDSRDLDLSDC
Sequence of cannabinoid receptor type-1 (CB1) (P21554 whole entry): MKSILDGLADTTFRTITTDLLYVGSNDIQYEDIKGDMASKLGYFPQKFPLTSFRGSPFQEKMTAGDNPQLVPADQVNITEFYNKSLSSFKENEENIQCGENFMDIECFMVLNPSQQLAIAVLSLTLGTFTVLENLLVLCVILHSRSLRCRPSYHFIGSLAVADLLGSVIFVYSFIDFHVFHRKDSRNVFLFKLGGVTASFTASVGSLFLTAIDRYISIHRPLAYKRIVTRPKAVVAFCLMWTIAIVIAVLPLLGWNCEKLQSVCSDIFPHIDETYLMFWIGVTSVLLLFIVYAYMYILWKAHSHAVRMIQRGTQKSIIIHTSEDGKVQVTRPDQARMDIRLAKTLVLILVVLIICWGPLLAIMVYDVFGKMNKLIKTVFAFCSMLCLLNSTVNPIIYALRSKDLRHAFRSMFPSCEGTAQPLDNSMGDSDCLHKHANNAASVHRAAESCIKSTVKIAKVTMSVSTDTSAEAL

C=C1CC/C=C(\C)CC[C@@H]2[C@@H]1CC2(C)C (relative stereo) [caryophyllene, trans-(1R,9S)-8-Methylene-4,11,11-trimethylbicyclo[7.2.0]undec-4-ene]
binding to cannabinoid receptor type-1 (CB1) [1]: does not bind | maximal benefit noted [2]: ≤ 30 min | therapeutic onset of action ([2]; generally): 10 to 15 min | action on CB2 receptors [3]: acts on CB2 receptors

CN1CCc2cccc3c2[C@H]1Cc1ccc(O)c(O)c1-3 [Apomorphine, apomorphine]
neck range of motion and pain on adding topical apomorphine ([4]; patient 14, torticollis with neck pain, apomorphine added after Cari-Derm): improved further. | tremors, focus, talkativeness with added Apomorphine ([4]; patient 20, Parkinson's disease, Apomorphine 5 mg after Cari-Derm): Cari-Derm; further improved | focus, spontaneity, gait after additional Apomorphine ([4]; patient 23, poor focus, impulsivity, gait problems from Parkinson's, additional 5 mg Apomorphine after Cari-Derm): further improvement noted.

C=C(C)[C@@H]1CCC(C)=C[C@H]1c1c(O)cc(CCCCC)cc1O [CBD, cannabidiol]
patient's comparison of CBD with Cari-Derm for headache ([4]; patient 35, chronic headaches and ADHD, uses topical CBD cream): CBD worked better.

COC(=O)C(c1ccccc1)C1CCCCN1 (stereo not shown) [Ritalin, methylphenidate]
agitation on earlier medication [5]: benefit; increased agitation

amphetamine, dextroamphetamine mixed salts [Adderall]
agitation on earlier medication [5]: benefit; increased agitation
